Data as given in US20050201938A1, “Method for selectively inhibiting ghrelin action” (priority 2000, published 2005).

Columns and labels:
[1] = In-vivo analysis of body composition by dual-energy X-ray absorptiometry (DXA); parameters: species or system mice
Experimental: Body composition was measured on day 14 of the treatment period by DXA using a Norland p-DEXA® (Norland, USA). The system provides a non-invasive method for quantification of whole body composition and is based on the differential attenuation of high and low energy x-rays by the tissues in the scan area. Soft tissues attenuate the energy beam less than bone; of the soft tissue mass, fat tissue attenuates the beam less than lean tissue. Fat mass consists primarily of adipose tissue, but lean mass includes organs, tendons, cartilage, blood and body water in addition to skeletal muscle. In the present study, fat mass, lean mass and bone mineral content (bone mass) were measured and reported. Mice were anesthetized with inhalation of isoflorane and placed on the instrument platform in ventral position. Measurements were performed at a speed of 10 mm/min and a resolution of 0.5×0.5 mm. Quality controls using phantom ID2232 and Calibration Standard 82315 (Norland) were performed before starting measurements.
(§1) Mice were treated with GHRP-2 for 18 days. […] This was partially a consequence of decreased (p=0.02) lipid utilization measured by indirect calorimetry. Hypothalamic mRNA levels (measured by RT-PCR) of neuropeptide Y (NPY), agouti-related-protein (AGRP), pro-opio-melanocortin (POMC) and […] (MCH) were not changed. Since GHRP-6 increases c-fos expression in NPY-neurons (Vernon, R. G.; J Endocrinol 150, 129-40 (1996)) and because these neurons also release AGRP, a natural melanocyte stimulating hormone antagonist, GHRP-2 treatment was repeated in NPY-knockout mice (NPY-/−). […] However, an increase in AGRP mRNA levels (p=0.008, n=24 in GHRP-2 treated (NPY-/−)) was observed. Plasma levels of IGF-I, insulin, glucose and corticosterone were not changed. […] 200 μg of rat ghrelin was injected subcutaneously into wild-type mice, GHRP-2 or vehicle (phosphate buffered saline). After 5 days of treatment, body weight increased (p=0.00) 12% in both ghrelin- and GHRP-2-treated mice but not in controls. This weight gain was a consequence of decreased energy expenditure and decreased lipid utilization.

[2] = tested on: hypothalamic mRNA of NPY, AGRP, POMC, MCH; test: Hypothalamic mRNA levels measured by RT-PCR, wild-type mice; type: in vivo; details: GHRP-2 treatment
Experimental: as §1

[3] = Plasma levels of IGF-I, insulin, glucose and corticosterone after GHRP-2 treatment; type: in vivo; details: GHRP-2 treated mice
Experimental: as §1

[4] = In vivo administration to wild-type mice: food intake and body weight; details: for body weight increase: wild-type mice, subcutaneous injection, after 5 days of treatment, not in controls
Experimental: (§2) Wild-type mice (129SV strain) and NPY-knockout mice were obtained from Taconic Farms®. Eight-week old dwarf rats were purchased at Harlan UK. Animals were housed individually in a temperature controlled environment (25° C.) with a 12-hour light and 12-hour dark (18.00−06.00) photoperiod. All mice had ad libitum access to pelleted mouse food (5008 PMI® Nutrition International) and tap water. Mice were between 9 and 13 weeks of age and were injected daily between 17.00 and 18.00 with 0.1 ml of phosphate buffered saline (PBS) containing 0 or 8 mg/kg/d ghrelin over 13 days. Food intake and body weights were measured daily at 08.00 h. All animal experiments were conducted in accordance with the principles and procedures outlined in the National Institute of Health (NIH) Guide for the Care and Use of Laboratory Animals.
as §1

[5] = Indirect calorimetry (energy expenditure, fuel utilization); type: in vivo, mice
Experimental: Twenty-four hour energy expenditure (EE) and respiratory quotient (RQ) were measured by indirect calorimetry using an open circuit calorimetry system (Oxymax, Columbus Instruments International Corporation; Columbus, Ohio). The instrument was calibrated before each experiment using standard gas mixtures containing known concentrations of CO2, N2 and O2. After the first daily injection, animals were placed in calorimeter chambers containing food and water in a room maintained under identical conditions as those described above throughout the treatment period. Gas sampled from each of 10 chambers was first dried by a condenser. The volume of oxygen consumed (VO2) and carbon dioxide produced (VCO2) in an hour was measured using a paramagnetic oxygen sensor and a spectrophotometric CO2 sensor. Such measurements were obtained hourly for 24 hours. RQ is the ratio of VCO2 to VO2. EE was calculated as the product of calorific value of oxygen (CV) and VO2 per kilogram (kg) of body weight; where CV=3.815+1.232*RQ (Elia, M. & Livesey, G, World Rev Nutr Diet 70, 68-131 (1992)). Total calories expended were calculated to determine daily fuel utilization. To calculate proportion of protein, fat and carbohydrate that is utilized during that 24-hour period, we used Flatt's proposal and assumed that protein utilization was equivalent to protein intake for adult stable animals (Flatt, J. P., J. Nutr Biochem 2, 193-202 (1991)). Using formulae and constants derived by Elia and Livesey (Elia, M. & Livesey, G., World Rev Nutr Diet, 70, 68-131 (1992)), we calculated the percent of daily fuel utilization derived from carbohydrate and fat. Daily caloric intake was calculated as (mass of daily food intake in g)*(physiological fuel value of the diet in kcal/g). Locomotor activity was measured by counting the number of times an animal breaks a new light beam during each of 24 hours in the calorimeter.
as §1

[6] = tested on: NPY-knockout mice (NPY-/-); test: GHRP-2 treatment repeated in NPY-knockout mice; type: in vivo
Experimental: as §2
Mice were treated with GHRP-2 for 18 days. […] This was partially a consequence of decreased (p=0.02) lipid utilization measured by indirect calorimetry. Hypothalamic mRNA levels (measured by RT-PCR) of neuropeptide Y (NPY), agouti-related-protein (AGRP), pro-opio-melanocortin (POMC) and […] (MCH) were not changed. […]

[7] = mice treated with GHRP-2 for 18 days, n=42, p=0.001
[8] = wild-type mice, 5 days of treatment

Substance | fat mass ([1]; mice, 18 days treatment, DXA, p=0.002) | bone mass ([1]; mice, 18 days treatment, DXA, p=0.017) | lean mass ([1]; mice, 18 days treatment, DXA, p=0.63) | hypothalamic mRNA level of agouti-related-protein (AGRP) [2] | hypothalamic mRNA level of melanocyte-concentrating hormone (MCH) [2] | hypothalamic mRNA level of neuropeptide Y (NPY) [2] | hypothalamic mRNA level of pro-opio-melanocortin (POMC) [2] | plasma level of IGF-I [3] | plasma level of corticosterone [3] | plasma level of glucose [3] | plasma level of insulin [3] | body weight [4, 7] | food intake [4, 7] | body weight increase [4] | lipid utilization ([5]; mice, 18 days treatment, indirect calorimetry, p=0.02) | energy expenditure [5, 8] | lipid utilization [5, 8] | energy balance [6] | AGRP mRNA levels ([6]; p=0.008, n=24) | effect of administration in an animal model (fat deposition) ([1]; animal model, inventors' work, Nature 407: 908-913 (2000))
GHRP-2 | significant increase | significant increase | no change | not changed | not changed | not changed | not changed | not changed | not changed | not changed | not changed | dose-dependent increase | dose-dependent increase | 12% | decreased | decreased | decreased | positive energy balance | increase | 
ghrelin |  |  |  |  |  |  |  |  |  |  |  |  |  | 12% |  | decreased | decreased |  |  | predominantly lead to fat deposition
